Assays:
[1] = Apparent intrinsic clearance in human liver microsomes; assay type: ADME, Microsome; settings: read-out: CLH(app)
Cytochrome P450 1A2 = target: T1, Cytochrome P450 1A2 (Homo sapiens, UniProt P05177); experiment: Inhibition of CYP1A2 (unknown origin); assay type: ADME
T1 sequence (P05177 whole entry): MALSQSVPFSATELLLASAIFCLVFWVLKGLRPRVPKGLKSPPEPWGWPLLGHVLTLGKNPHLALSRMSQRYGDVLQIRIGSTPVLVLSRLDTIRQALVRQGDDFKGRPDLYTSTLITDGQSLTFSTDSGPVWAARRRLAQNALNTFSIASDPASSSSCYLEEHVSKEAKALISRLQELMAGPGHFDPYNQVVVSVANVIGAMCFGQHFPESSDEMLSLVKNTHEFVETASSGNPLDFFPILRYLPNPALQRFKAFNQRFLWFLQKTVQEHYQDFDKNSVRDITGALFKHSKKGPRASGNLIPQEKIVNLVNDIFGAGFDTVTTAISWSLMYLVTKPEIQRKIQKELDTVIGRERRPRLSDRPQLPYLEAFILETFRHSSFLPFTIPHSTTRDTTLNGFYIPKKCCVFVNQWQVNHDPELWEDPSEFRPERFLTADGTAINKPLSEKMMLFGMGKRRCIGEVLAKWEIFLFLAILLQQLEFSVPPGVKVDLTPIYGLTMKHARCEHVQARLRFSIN

Cytochrome P450 3A4 = Cytochrome P450 3A4 (Homo sapiens, UniProt P08684); experiment: Inhibition of CYP3A4 (unknown origin); assay type: ADME
Cytochrome P450 2C19 = Cytochrome P450 2C19 (Homo sapiens, UniProt P33261); experiment: Inhibition of CYP2C19 (unknown origin); assay type: ADME
Cytochrome P450 2D6 = Cytochrome P450 2D6 (Homo sapiens, UniProt P10635); experiment: Inhibition of CYP2D6 (unknown origin); assay type: ADME
Cytochrome P450 2C8 = target: T2, Cytochrome P450 2C8 (Homo sapiens, UniProt P10632); experiment: Inhibition of CYP2C8 (unknown origin); assay type: ADME
T2 sequence (P10632 whole entry): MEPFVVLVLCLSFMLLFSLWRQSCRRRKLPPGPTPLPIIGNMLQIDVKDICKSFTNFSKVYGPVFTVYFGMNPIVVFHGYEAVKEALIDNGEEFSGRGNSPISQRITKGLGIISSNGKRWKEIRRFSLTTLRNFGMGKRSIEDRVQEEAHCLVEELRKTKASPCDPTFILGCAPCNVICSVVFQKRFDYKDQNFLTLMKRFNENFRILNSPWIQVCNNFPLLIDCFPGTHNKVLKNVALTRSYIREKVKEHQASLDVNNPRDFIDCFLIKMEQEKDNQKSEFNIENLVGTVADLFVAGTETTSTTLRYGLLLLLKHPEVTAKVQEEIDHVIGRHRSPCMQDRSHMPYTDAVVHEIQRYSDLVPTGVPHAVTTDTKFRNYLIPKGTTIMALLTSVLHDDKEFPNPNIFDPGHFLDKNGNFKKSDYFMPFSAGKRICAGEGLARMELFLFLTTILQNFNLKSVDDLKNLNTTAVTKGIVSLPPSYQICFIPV

Cytochrome P450 2C9 = Cytochrome P450 2C9 (Homo sapiens, UniProt P11712); experiment: Inhibition of CYP2C9 (unknown origin); assay type: ADME
[2] = Selectivity ratio of IC50 for inhibition of PI3Kalpha (unknown origin) to IC50 for inhibition of recombinant human GST-tagged mTOR (1360 to 2549 residues) expressed in insect cells
[3] = Toxicity in Balb/c Nu/Nu mouse xenografted with human A549 cells assessed as reduction in body weight at 30 mg/kg, po administrated for 14 days; assay type: organism-based; design: scale not given: the % may be the effect or the level left; settings: in vivo, 336 h, time 14 day
[4] = Intrinsic clearance in human liver microsomes; assay type: ADME, Microsome; settings: read-out: CLH
A549 [5] = experiment: Antitumor activity against human A549 cells xenografted in BALB/c Nu/Nu mouse assessed as tumor growth inhibition at 30 mg/kg, po administrated for 14 days relative to control; assay type: functional; settings: A549, 336 h, time 14 day, read-out: TGI
[6] = Fraction absorbed in rat at 4 mg/kg, po; assay type: ADME, organism-based; settings: in vivo, read-out: Fabs
A549 [7] = experiment: Antitumor activity against human A549 cells xenografted in BALB/c Nu/Nu mouse assessed as tumor growth inhibition at 2 mg/kg, po administrated for 14 days relative to control; assay type: functional; settings: A549, 336 h, time 14 day, read-out: TGI
[8] = Toxicity in Balb/c Nu/Nu mouse xenografted with human A549 cells assessed as reduction in body weight at 2 to 6 mg/kg, po administrated for 14 days; assay type: organism-based; design: scale not given: the % may be the effect or the level left; settings: in vivo, 336 h, dose 2-6 mg/kg, time 14 day

Sequence of Cytochrome P450 2C9 (P11712 whole entry, the tested form may be a part): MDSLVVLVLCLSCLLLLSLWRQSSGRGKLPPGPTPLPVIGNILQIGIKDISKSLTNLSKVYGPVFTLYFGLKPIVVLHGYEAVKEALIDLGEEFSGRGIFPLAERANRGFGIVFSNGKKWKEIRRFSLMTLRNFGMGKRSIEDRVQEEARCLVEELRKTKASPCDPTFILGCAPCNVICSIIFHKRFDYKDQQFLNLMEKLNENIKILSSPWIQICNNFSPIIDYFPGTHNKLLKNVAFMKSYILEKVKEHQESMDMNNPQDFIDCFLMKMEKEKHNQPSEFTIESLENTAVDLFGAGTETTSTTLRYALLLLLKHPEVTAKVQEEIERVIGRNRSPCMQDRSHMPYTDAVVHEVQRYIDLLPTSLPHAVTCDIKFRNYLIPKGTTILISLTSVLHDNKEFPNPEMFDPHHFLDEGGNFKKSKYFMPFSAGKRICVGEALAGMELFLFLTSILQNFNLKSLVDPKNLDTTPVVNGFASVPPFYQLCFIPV
Sequence of Cytochrome P450 2D6 (P10635 whole entry): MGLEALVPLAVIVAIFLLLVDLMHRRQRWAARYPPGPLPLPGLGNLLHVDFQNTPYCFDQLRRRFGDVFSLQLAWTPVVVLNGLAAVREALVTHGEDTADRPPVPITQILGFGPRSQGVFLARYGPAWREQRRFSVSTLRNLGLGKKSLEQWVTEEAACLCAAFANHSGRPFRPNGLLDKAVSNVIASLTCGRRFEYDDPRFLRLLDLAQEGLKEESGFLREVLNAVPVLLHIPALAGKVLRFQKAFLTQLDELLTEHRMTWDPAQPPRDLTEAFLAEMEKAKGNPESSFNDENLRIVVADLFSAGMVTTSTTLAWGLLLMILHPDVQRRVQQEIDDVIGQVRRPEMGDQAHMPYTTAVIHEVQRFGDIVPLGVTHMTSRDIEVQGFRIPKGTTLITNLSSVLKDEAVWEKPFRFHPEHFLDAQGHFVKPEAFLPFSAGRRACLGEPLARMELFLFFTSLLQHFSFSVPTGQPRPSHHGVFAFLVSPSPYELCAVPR
Sequence of Cytochrome P450 2C19 (P33261 whole entry): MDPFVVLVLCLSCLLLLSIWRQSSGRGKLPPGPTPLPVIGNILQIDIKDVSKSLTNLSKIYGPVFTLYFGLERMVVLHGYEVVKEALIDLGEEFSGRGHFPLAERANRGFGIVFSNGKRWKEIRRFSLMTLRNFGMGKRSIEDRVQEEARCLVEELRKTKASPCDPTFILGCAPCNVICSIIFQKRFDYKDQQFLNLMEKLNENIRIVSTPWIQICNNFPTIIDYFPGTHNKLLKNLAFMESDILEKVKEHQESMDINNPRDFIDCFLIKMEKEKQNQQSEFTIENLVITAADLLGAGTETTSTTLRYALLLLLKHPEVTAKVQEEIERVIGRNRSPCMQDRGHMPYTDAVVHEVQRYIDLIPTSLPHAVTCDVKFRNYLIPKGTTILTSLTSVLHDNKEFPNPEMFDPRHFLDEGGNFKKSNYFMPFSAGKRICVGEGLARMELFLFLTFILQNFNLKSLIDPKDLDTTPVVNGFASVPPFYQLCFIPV
Sequence of Cytochrome P450 3A4 (P08684 whole entry): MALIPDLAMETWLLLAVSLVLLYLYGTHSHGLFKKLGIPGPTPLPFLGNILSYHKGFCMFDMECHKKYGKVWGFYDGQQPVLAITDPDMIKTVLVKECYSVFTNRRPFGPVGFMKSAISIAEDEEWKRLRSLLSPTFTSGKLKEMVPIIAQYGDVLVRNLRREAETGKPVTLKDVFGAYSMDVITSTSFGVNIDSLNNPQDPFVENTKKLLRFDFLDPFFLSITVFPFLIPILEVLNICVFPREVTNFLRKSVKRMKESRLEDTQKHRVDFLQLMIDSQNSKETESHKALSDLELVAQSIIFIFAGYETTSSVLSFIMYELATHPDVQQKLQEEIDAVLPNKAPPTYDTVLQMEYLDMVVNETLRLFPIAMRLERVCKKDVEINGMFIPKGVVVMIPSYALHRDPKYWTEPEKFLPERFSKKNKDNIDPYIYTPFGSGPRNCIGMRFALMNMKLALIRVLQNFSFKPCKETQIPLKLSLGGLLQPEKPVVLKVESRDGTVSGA

Structure (SMILES)	CLint scaled [1] [L/h/kg]	also measured
C[C@@]12COCCN1c1nc(-c3cnc4[nH]ccc4c3)ncc1N(C1CCOC1)C2=O (mixture of isomers)	0.72	–
Cc1ccc(-c2ncc3c(n2)N2CCOC[C@@]2(C)C(=O)N3[C@H]2CC[C@H](O)CC2)c2cc[nH]c12	0.36	–
C[C@@]12COCCN1c1nc(-c3cccc4[nH]ccc34)ncc1N(C1CCOCC1)C2=O	0.6	IC50 (Cytochrome P450 1A2): > 40 µM; IC50 (Cytochrome P450 3A4): > 40 µM; IC50 (Cytochrome P450 2C19): > 40 µM; IC50 (Cytochrome P450 2D6): > 40 µM; IC50 (Cytochrome P450 2C8): > 40 µM; IC50 (Cytochrome P450 2C9): > 40 µM
C[C@@]12COCCN1c1nc(-c3cccc4[nH]ccc34)ncc1N([C@H]1CC[C@@H](O)CC1)C2=O	0.36	–
Cc1cccc2c(-c3ncc4c(n3)N3CCOC[C@@]3(C)C(=O)N4[C@H]3CC[C@H](O)CC3)c[nH]c12	0.42	–
C[C@@]12COCCN1c1nc(-c3cnc4[nH]ccc4c3)ncc1N(C1CCOCC1)C2=O	0.36	–
C[C@@]12COCCN1c1nc(-c3cnc4[nH]ccc4c3)ncc1N(C1CCN(S(C)(=O)=O)CC1)C2=O	0.36	–
CC(F)(F)CN1C(=O)[C@]2(C)COCCN2c2nc(-c3ccc(NC(=O)NC4CC4)cc3)ncc21	–	Ratio IC50 [2]: > 50; Activity [3]: < 20%; CLint scaled [4]: < 0.6 L/h/kg; inhibition in vivo at 30 mg/kg (A549 [5]): 100%
Cc1ccc(-c2ncc3c(n2)N2CCOC[C@@]2(C)C(=O)N3[C@H]2CC[C@@H](O)CC2)c2cc[nH]c12	0.48	–
Cc1cccc2c(-c3ncc4c(n3)N3CCOC[C@@]3(C)C(=O)N4C3(CCCO)CC3)c[nH]c12	0.36	–
COCCCN1C(=O)[C@]2(C)COCCN2c2nc(-c3cnc4[nH]ccc4c3)ncc21	1.92	–
CC(=O)N1CCC(N2C(=O)[C@]3(C)COCCN3c3nc(-c4cccc5[nH]ccc45)ncc32)CC1	0.36	–
Cc1cccc2c(-c3ncc4c(n3)N3CCOC[C@@]3(C)C(=O)N4[C@H]3CC[C@@H](O)CC3)c[nH]c12	0.42	–
C[C@@]12COCCN1c1nc(-c3cnc4[nH]ccc4c3)ncc1N(C1(CCO)CC1)C2=O	0.66	–
C[C@@]12COCCN1c1nc(-c3cccc4[nH]ccc34)ncc1N([C@H]1CC[C@H](O)CC1)C2=O	–	Fa [6]: 100%; inhibition in vivo at 2 mg/kg (A549 [7]): 100%; Activity [8]: < 20%
